# Reference: patent US10562912B2 (C&C Research Laboratories, priority 2013, dated 2020)
# Key:
# Type in all cases: cell-based
# HEL92.1.7 = assay: Cell growth inhibition assay, blood cancer cell line HEL92.1.7; conditions: Homo sapiens, HEL 92.1.7, HEL92.1.7 blood cancer cell line
# Method: The inhibitory effects of the compounds of the present invention against the growth of cancer cells were evaluated as shown below. The cancer cell lines including stomach cancer cell line (AGS), breast cancer cell lines (MDA-MB-231, MDA-MB-468, and BT-549), prostate cancer cell lines (LNCaP and DU-145), colon cancer cell line (HCT116), ovarian cancer cell line (SW626), liver cancer cell line (Hep3B), kidney cancer cell line (ACHN), lung cancer cell line (NCI-H23) and blood cancer cell lines (HEL92.1.7 and U266) were cultured under the protocol provided by each supplier. A medium supplemented with 10 ng/mL of IL-6 was used for LNCaP, a prostate cancer cell line, when treated with a drug. Each type of cells to be used in experiments were sub-cultured in a 96-well plate by counting the exact number of cells using Tali™ Image-based Cytometer (Life Technologies). In a 96-well plate, AGS, HCT116, and DU-145 were employed with 3,000 cells/well; NCI-H23, SW626, Hep3B, ACHN, BT-549, MDA-MB-231, HEL92.1.7, and U266 were employed with 5,000 cells/well; and LNCaP and MDA-MB-468 were employed with 10,000 cells/well. The cells were treated with the compounds listed in Examples which were diluted in various concentrations. Upon completion of the compounds treatment, AGS, HCT116, SW626, DU145, NCI-H23, Hep3B, ACHN, BT-549, LNCaP, HEL92.1.7, and U266 cells were cultured at 37° C. under 5% CO2 for from 72 to 96 hours, and MDA-MB-231 and MDA-MB-468 cells were cultured at 37° C. in air for from 72 to 96 hours. Subsequently, the cells were observed under microscope and drug precipitation and particular findings were investigated and recorded. And then, the 96-well plate was placed at room temperature for 30 minutes, added with 20 μL/well of CellTiter-Glo solution (Cat No. G7573, Promega) and shaken for 10 minutes, followed by being subjected to the measurement using PHERAstar™ microplate reader (BMG LABTECH) according to the supplier's general luminometer protocol. Wells where only culture liquid added without cell plating were used as a negative control, whereas wells where culture liquid containing 0.1% DMSO instead of the compounds listed in Examples were used as a positive control.
# DU-145 = assay: Cell growth inhibition assay, prostate cancer cell line DU-145; conditions: Homo sapiens, DU-145 prostate cancer cell line
# Outline: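 Cells were seeded at 3,000/well (HCT116, DU-145) or 5,000/well (SW626 and the others) and exposed to serial compound dilutions for 72 to 96 h at 37 °C under 5% CO2. Viability was read as CellTiter-Glo luminescence against 0.1% DMSO and cell-free wells.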
# STAT3 = target: T1, STAT3 (Homo sapiens, UniProt P40763); assay: STAT3 reporter gene assay (luciferase), LNCaP stable cell line (pSTAT3-TA-luc), IL-6 stimulation
# T1 construct: plasmid pSTAT3-TA-luc), which contains a stably operating STAT3 promoter; endogenous in cells
# T1 sequence (P40763 whole entry): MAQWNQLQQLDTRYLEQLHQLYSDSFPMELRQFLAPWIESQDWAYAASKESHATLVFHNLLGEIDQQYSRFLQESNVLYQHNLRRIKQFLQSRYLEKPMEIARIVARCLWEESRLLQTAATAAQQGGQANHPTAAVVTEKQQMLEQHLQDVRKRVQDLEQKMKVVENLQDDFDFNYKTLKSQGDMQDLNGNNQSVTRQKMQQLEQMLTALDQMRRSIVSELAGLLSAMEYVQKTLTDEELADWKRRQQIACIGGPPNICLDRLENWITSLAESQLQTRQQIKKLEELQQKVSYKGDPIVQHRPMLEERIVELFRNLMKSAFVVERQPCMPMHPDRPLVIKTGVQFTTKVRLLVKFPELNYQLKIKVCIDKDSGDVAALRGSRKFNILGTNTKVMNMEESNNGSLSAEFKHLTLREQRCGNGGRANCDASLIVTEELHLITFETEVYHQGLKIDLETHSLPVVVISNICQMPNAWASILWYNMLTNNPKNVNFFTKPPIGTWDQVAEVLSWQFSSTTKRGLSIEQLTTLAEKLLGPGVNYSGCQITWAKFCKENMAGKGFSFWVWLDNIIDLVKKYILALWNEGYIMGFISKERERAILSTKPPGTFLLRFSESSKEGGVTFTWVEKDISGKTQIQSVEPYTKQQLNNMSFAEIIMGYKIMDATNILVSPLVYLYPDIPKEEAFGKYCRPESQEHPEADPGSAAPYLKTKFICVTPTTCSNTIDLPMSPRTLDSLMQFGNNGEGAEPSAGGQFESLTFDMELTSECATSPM
# Outline: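 Cytotoxicity was run on a duplicate plate with CellTiter-Glo, while the other plate gave luciferase read-outs from lysed LNCaP pSTAT3-TA-luc reporter cells. Cells were treated with graded compound concentrations plus IL-6 (10 ng/mL final) for 24–48 h in 3% DCC-FBS medium. Unstimulated and stimulated wells served as negative and positive controls.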
# LNCaP = assay: Cell growth inhibition assay, prostate cancer cell line LNCaP (medium with 10 ng/mL IL-6); conditions: Homo sapiens, medium supplemented with 10 ng/mL of IL-6, 10,000 cells/well
# MDA-MB-231 = assay: Cell growth inhibition assay, breast cancer cell line MDA-MB-231; conditions: Homo sapiens; MDA-MB-231 breast cancer cell line, 5,000 cells/well
Compound,IC50 (HEL92.1.7) [µM],IC50 (DU-145) [µM],IC50 (STAT3) [µM],IC50 (LNCaP) [µM],IC50 (MDA-MB-231) [µM]
"COc1cc(OC(F)(F)F)cc(-c2cc(Cl)cc(NC(=O)c3cc4cc(NS(C)(=O)=O)ccc4s3)c2)c1 [Example 324, N-(5-chloro-3′-methoxy-5′-(trifluoromethoxy)-[1,1′-biphenyl]-3-yl)-5-(methylsulfonamido)benzo[b]thiophene-2-carboxamide]",0.83,0.4,0.53,0.48,–
"COc1ccc(OC)c(C(C)(C)c2cc(Cl)cc(NC(=O)c3cc4cc(NS(C)(=O)=O)ccc4s3)c2)c1 [Example 156, N-(3-chloro-5-(2-(2,5-dimethoxyphenyl)propan-2-yl)phenyl)-5-(methylsulfonamido)benzo[b]thiophene-2-carboxamide]",0.74,0.25,0.23,0.14,–
"CC(C)Oc1cc(OC(F)(F)F)cc(C(C)(C)c2cc(Cl)cc(NC(=O)c3cc4cc(N5CCCS5(=O)=O)ccc4s3)c2)c1 [Example 212, N-(3-chloro-5-(2-(3-isopropoxy-5-(trifluoromethoxy)phenyl)propan-2-yl)phenyl)-5-(1,1-dioxidoisothiazolidin-2-yl)benzo[b]thiophene-2-carboxamide]",0.081,0.022,0.01,0.075,–
"CC(C)(C)OC(=O)N1CCC(Oc2cc(OC(F)(F)F)cc(C(C)(C)c3cc(Cl)cc(NC(=O)c4cc5cc(NS(C)(=O)=O)ccc5s4)c3)c2)CC1 [Example 95, tert-butyl 4-(3-(2-(3-chloro-5-(5-(methylsulfonamido)benzo[b]thiophene-2-carboxamido)phenyl)propan-2-yl)-5-(trifluoromethoxy)phenoxy)piperidine-1-carboxylate]",0.69,0.011,0.11,0.015,–
"CC(C)Oc1cc(OC(F)(F)F)cc(C(C)(C)c2cc(Cl)cc(NC(=O)c3cc4cc(NS(C)(=O)=O)c(F)cc4s3)c2)c1 [Example 84, N-(3-chloro-5-(2-(3-isopropoxy-5-(trifluoromethoxy)phenyl)propan-2-yl)phenyl)-6-fluoro-5-(methylsulfonamido)benzo[b]thiophene-2-carboxamide]",0.014,0.002,0.004,0.008,–
"CC(C)(c1ccc(F)cc1)c1cc(Cl)cc(NC(=O)c2cc3ccc(NS(C)(=O)=O)cc3[nH]2)c1 [Example 21, N-(3-chloro-5-(2-(4-fluorophenyl)propan-2-yl)phenyl)-6-(methylsulfonamido)-1H-indole-2-carboxamide]",–,0.19,0.22,0.9,0.054
"CC(C)(c1cc(Br)cc(NC(=O)c2cc3cc(NS(C)(=O)=O)ccc3s2)c1)c1cccc(OCC(N)=O)c1 [Example 43, N-(3-(2-(3-(2-amino-2-oxoethoxy)phenyl)propan-2-yl)-5-bromophenyl)-5-(methylsulfonamido)benzo[b]thiophene-2-carboxamide]",–,4.9,2.7,5.8,3.6

# The remaining molecules from weak to strong by IC50 (DU-145), led by results:
IC50 (HEL92.1.7) [µM],IC50 (DU-145) [µM],IC50 (STAT3) [µM],IC50 (LNCaP) [µM],IC50 (MDA-MB-231) [µM],Compound
1,0.38,> 10,0.58,–,"COc1cc(OC(F)(F)F)cc(C(C)(C)c2cc(Cl)nc(NC(=O)c3cc4cc(NS(C)(=O)=O)ccc4s3)c2)c1 [Example 148, N-(6-chloro-4-(2-(3-methoxy-5-(trifluoromethoxy)phenyl)propan-2-yl)pyridin-2-yl)-5-(methylsulfonamido)benzo[b]thiophene-2-carboxamide]"
0.39,0.15,0.15,0.1,–,"COc1ccc(C(C)(C)c2cc(Cl)cc(NC(=O)c3cc4cc(NS(C)(=O)=O)ccc4s3)c2)cc1OC [Example 153, N-(3-chloro-5-(2-(3,4-dimethoxyphenyl)propan-2-yl)phenyl)-5-(methylsulfonamido)benzo[b]thiophene-2-carboxamide]"
–,0.15,0.12,0.52,0.088,"COc1cc2cc(C(=O)Nc3cc(Br)cc(C(C)(C)c4ccc(F)cc4)c3)[nH]c2cc1NS(C)(=O)=O [Example 19, N-(3-bromo-5-(2-(4-fluorophenyl)propan-2-yl)phenyl)-5-methoxy-6-(methylsulfonamido)-1H-indole-2-carboxamide]"
0.65,0.13,0.083,0.24,–,"CS(=O)(=O)Nc1ccc2sc(C(=O)Nc3cc(Cl)cc(Oc4ccc(F)cc4F)c3)cc2c1 [Example 444, N-(3-chloro-5-(2,4-difluorophenoxy)phenyl)-5-(methylsulfonamido)benzo[b]thiophene-2-carboxamide]"
0.33,0.08,0.17,0.22,–,"CC(C)Oc1cc(OC(F)(F)F)cc(C(C)(C)c2cc(Cl)cc(NC(=O)c3cc4cc(NS(=O)(=O)CCN(C)C)ccc4s3)c2)c1 [Example 208, N-(3-chloro-5-(2-(3-isopropoxy-5-(trifluoromethoxy)phenyl)propan-2-yl)phenyl)-5-((2-(dimethylamino)ethyl)sulfonamido)benzo[b]thiophene-2-carboxamide]"
–,0.044,0.034,0.15,0.021,"CC(C)(c1ccc(F)cc1)c1cc(Br)cc(NC(=O)c2cc3cc(NS(C)(=O)=O)ccc3s2)c1 [Example 32, N-(3-bromo-5-(2-(4-fluorophenyl)propan-2-yl)phenyl)-5-(methylsulfonamido)benzo[b]thiophene-2-carboxamide]"
–,0.037,0.035,0.15,0.003,"COc1cc(OC(F)(F)F)cc(C(C)(C)c2cccc(NC(=O)c3cc4cc(NS(C)(=O)=O)ccc4s3)c2)c1 [Example 33, N-(3-(2-(3-methoxy-5-(trifluoromethoxy)phenyl)propan-2-yl)phenyl)-5-(methylsulfonamido)benzo[b]thiophene-2-carboxamide]"
0.14,0.03,0.07,0.05,–,"COc1cc(OC(F)(F)F)cc(C(C)(C)c2cc(NC(=O)c3cc4cc(NS(C)(=O)=O)ccc4s3)cc(Cl)n2)c1 [Example 149, N-(2-chloro-6-(2-(3-methoxy-5-(trifluoromethoxy)phenyl)propan-2-yl)pyridin-4-yl)-5-(methylsulfonamido)benzo[b]thiophene-2-carboxamide]"
0.053,0.018,0.029,0.064,–,"CC(C)Oc1cc(OC(F)(F)F)cc(C(C)(C)c2cc(Cl)cc(NC(=O)c3cc4cc(NS(=O)(=O)c5cnn(C)c5)ccc4s3)c2)c1 [Example 201, N-(3-chloro-5-(2-(3-isopropoxy-5-(trifluoromethoxy)phenyl)propan-2-yl)phenyl)-5-((1-methyl-1H-pyrazole)-4-sulfonamido)benzo[b]thiophene-2-carboxamide]"
0.085,0.012,0.036,0.021,–,"CN(c1ccc(Cl)cc1)c1cc(Cl)cc(NC(=O)c2cc3cc(NS(C)(=O)=O)ccc3s2)c1 [Example 440, N-(3-chloro-5-((4-chlorophenyl)(methyl)amino)phenyl)-5-(methylsulfonamido)benzo[b]thiophene-2-carboxamide]"
0.057,0.005,0.029,0.011,–,"O=C(Nc1cc(Cl)cc(-c2ccc(F)cc2F)c1)c1cc2cc(NS(=O)(=O)C3CCOC3)c(F)cc2s1 (stereo not drawn) [Example 330, N-(5-chloro-2′,4′-difluoro-[1,1′-biphenyl]-3-yl)-6-fluoro-5-((tetrahydrofuran)-3-sulfonamido)benzo[b]thiophene-2-carboxamide]"
